# Experimental data reported in patent publication US6403765B1, “Truncated Apaf-1 and methods of use thereof” (Thomas Jefferson University, priority 1998, dated 2002).
# Entries after “also recorded” stand apart in the source; their conditions may differ.
# T1: T7-tagged Apaf-530 (human, UniProt O14727 1-541)
# T1 construct: Expressed in co-transfected 293 cells; also called T7-Apaf-530
# T1 sequence: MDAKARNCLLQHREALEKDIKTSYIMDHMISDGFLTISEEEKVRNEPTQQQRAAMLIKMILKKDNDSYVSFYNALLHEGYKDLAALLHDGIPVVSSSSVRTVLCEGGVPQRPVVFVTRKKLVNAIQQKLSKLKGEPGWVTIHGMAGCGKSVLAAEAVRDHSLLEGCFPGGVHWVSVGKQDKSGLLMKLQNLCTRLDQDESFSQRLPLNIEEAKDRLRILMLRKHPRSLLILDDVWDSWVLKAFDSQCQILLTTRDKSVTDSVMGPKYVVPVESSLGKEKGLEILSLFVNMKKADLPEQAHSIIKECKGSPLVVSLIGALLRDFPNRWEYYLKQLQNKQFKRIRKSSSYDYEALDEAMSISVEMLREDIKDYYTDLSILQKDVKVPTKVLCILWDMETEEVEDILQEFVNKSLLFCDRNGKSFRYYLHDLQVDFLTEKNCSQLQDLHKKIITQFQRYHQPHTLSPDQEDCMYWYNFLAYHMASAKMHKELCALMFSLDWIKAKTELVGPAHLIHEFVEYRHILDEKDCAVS
# T2: Apaf-1 (endogenous, in 293 cellular S100 extract, with cytochrome c plus dATP)
# T2 chain: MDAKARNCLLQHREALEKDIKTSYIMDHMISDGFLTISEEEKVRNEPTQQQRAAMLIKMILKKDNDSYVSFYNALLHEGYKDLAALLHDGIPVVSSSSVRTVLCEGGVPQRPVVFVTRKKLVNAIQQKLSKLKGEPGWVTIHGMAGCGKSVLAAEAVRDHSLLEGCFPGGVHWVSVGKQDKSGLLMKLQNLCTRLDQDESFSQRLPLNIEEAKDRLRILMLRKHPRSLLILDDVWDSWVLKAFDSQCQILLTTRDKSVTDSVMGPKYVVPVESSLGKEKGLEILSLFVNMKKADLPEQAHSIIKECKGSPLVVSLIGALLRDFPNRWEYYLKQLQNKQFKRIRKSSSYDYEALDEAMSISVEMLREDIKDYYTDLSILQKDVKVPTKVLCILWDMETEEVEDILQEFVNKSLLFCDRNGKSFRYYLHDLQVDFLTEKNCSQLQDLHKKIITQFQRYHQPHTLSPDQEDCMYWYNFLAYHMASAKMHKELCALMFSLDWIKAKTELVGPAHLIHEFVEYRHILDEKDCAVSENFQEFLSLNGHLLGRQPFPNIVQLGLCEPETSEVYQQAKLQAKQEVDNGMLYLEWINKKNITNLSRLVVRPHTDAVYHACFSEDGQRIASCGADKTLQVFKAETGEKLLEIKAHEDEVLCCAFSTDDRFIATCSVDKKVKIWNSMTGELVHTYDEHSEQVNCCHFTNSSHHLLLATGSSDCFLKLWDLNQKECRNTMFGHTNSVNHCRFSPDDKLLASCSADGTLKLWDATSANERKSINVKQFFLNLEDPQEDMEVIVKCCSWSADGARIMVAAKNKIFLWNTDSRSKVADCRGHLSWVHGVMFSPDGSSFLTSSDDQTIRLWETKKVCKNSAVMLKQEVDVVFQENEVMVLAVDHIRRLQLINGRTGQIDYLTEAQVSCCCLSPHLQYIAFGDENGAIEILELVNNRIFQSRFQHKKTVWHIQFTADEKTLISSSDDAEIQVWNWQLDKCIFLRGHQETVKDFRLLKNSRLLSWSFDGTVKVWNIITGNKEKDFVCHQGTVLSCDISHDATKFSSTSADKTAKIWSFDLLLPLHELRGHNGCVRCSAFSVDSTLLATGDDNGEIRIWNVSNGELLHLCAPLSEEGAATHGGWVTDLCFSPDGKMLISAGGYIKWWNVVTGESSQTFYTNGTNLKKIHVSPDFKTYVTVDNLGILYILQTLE
# T3: recombinant Apaf-530 (Ni2+-affinity purified, bacterially expressed, C-terminal His6 tag)
# T3 chain: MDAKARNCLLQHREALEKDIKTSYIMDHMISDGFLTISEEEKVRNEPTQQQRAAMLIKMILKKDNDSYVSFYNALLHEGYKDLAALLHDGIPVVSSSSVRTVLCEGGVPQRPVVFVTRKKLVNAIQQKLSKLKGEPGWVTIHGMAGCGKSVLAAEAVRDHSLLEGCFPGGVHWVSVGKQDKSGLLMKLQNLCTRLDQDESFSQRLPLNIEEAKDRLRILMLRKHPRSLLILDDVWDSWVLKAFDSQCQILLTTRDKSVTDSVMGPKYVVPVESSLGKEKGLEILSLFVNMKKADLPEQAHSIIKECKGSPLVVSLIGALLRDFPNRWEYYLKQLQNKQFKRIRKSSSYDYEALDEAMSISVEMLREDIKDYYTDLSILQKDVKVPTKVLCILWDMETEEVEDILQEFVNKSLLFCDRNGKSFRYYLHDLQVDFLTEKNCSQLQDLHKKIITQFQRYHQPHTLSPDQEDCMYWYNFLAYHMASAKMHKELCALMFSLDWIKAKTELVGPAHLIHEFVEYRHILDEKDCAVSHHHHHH
# Columns and labels:
# procaspase-6 = experiment: Cytochrome c/dATP-dependent processing of procaspase-6 in 293 cellular S100 extract; format: biochemical; conditions: 35S-labeled procaspase-6, 293 S100 extract, FIG. 8
# Procedure: (§1) In FIG. 8, ^35S-labeled procaspase-3, -6 or -7 were incubated with S100 extracts from 293 cells in the presence or absence of cytochrome c/dATP or DEVD-CHO, or both and analyzed by SDS-PAGE followed by autoradiography. However, when DEVD-CHO was included, processing of procaspase-6 (lane 6), but not procaspase-3 (lane 3) or -7 (lane 9) was inhibited. […] Also, since caspase-7 cannot process procaspase-6 (Srinivasula et al., J. Biol. Chem. 271:27099-27106, 1996), caspase-3 is the one responsible for processing of procaspase-6 in the cytochrome c plus dATP-dependent pathway.
# procaspase-7 = experiment: Cytochrome c/dATP-dependent processing of procaspase-7 in 293 cellular S100 extract; format: biochemical; conditions: 35S-labeled procaspase-7, 293 S100 extract, FIG. 8
# Procedure: as §1
# procaspase-3 = experiment: Cytochrome c/dATP-dependent processing of procaspase-3 in 293 cellular S100 extract; format: biochemical; conditions: cytochrome c/dATP
# Procedure: (§2) To confirm this, a time course analysis of procaspase-9 and procaspase-3 processing was performed in cellular S100 extracts from 293 and MCF-7 cells. […] At the indicated times the reactions were stopped and then analyzed by SDS-PAGE and autoradiography (procaspase-9 panels) or Western blot analysis using anti-caspase-3 p20 polyclonal antibody (procaspase-3 panels). Small arrows indicate a non-specific band detected by the anti-caspase-3 antibody.
# as §1
# (§3) In FIG. 18, 293 cellular S100 extracts supplemented with ^35S-labeled procaspase-9 (upper panel) or procaspase-3 (lower panel) were incubated with (lanes 3-7) or without (lane 2) cytochrome c plus dATP in the presence of increasing amounts of purified recombinant procaspase-9-C287A mutant for 1 hour at 30° C. and then analyzed by SDS-PAGE and autoradiography. […] Consequently, the Apaf-1/caspase-9 pathway appears to be a central apoptotic pathway, on which most apoptotic signals converge.
# procaspase-9 = experiment: Cytochrome c/dATP-dependent processing of procaspase-9 in 293 cellular S100 extract; format: biochemical; conditions: 293 S100 extract, cytochrome c plus dATP
# Procedure: To study processing of procaspase-9 in the cytochrome c/Apaf-1-dependent pathway, WT and the Asp to Ala mutants of procaspase-9 were incubated with a cellular S100 extract in the presence or absence of cytochrome c and dATP. […] Samples were then analyzed by SDS-PAGE and autoradiography.
# as §2, §3
# MCF-7 cells = experiment: Inhibition of apoptosis in transfected MCF-7 cells; format: cell-based; conditions: apoptosis induced by UV, Fas agonist antibody, TRAIL, or overexpression of DR4 and DR5, FIG. 17
# Excerpt: To express the caspases or truncated Apaf-1 in mammalian cells and assay their apoptotic activity, they were amplified with the T7-tag primer and reverse primers using the pET28a constructs as templates, and subcloned into the mammalian double expression vector pRSC-LacZ (MacFarlane et al., J. Biol. Chem., 272:25417-25420, 1997; Tsang et al., Bio/Technology, 22:68, 1997) or as previously described (Li et al., Cell 91:479-489, 1997; Srinivasula et al., J. Biol. Chem., 272:18452-18545, 1997). This vector allows the expression of lacZ under the Rous Sarcoma virus promoter, and the test cDNA under the CMV promoter. To assay for apoptosis, MCF-7 or 293 cells were transfected, using the method commercially available as the Lipofect Amine method (Life Technologies, Inc.), with the pRSC-LacZ constructs in the presence or absence of different apoptosis-inhibitors. 30 h after transfection cells were stained with β-galactosidase and examined for morphological signs of apoptosis. The percentage of round blue apoptotic cells (mean±SD) were determined by phase contrast microscopy and then represented as a function of total blue cells under each condition (n≧3).
# T7-tagged Bcl-xL = biological target: T4, T7-tagged Bcl-xL (UniProt Q07817 1-233); experiment: co-immunoprecipitation from co-transfected 293 cells: anti-Flag IP, anti-T7 immunoblot
# T4 construct: Expressed in co-transfected 293 cells
# Procedure: (§4) The immunoprecipitates were analyzed by Western blotting with an anti-T7 antibody.
# (§5) After 36 hours, extracts were prepared and immunoprecipitated with a monoclonal antibody to the Flag epitope. The immunoprecipitates (upper panel) were analyzed by SDS-PAGE and immunoblotted with a horseradish peroxides-conjugated T7 antibody.
# (§6) In vivo interaction experiments between Apaf-1 variants and Bcl-x_L were performed. […] After 36 hours, extracts were prepared and immunoprecipitated with a monoclonal antibody to the Flag epitope. The immunoprecipitates (FIG. 16, upper panel) were analyzed by SDS-PAGE and immunoblotted with a horseradish peroxidase-conjugated T7 antibody.
# T7-tagged Apaf-530 = biological target: T1, T7-tagged Apaf-530; experiment: as above
# Procedure: as §4, §5, §6
# [1] = biological target: T2, Apaf-1 (endogenous, in 293 cellular …)
# [2] = biological target: T3, recombinant Apaf-530 (Ni2+-affinity …)
# [3] = 293 S100 extract, Western blot, FIG. 5
# T4 sequence (Q07817 whole entry): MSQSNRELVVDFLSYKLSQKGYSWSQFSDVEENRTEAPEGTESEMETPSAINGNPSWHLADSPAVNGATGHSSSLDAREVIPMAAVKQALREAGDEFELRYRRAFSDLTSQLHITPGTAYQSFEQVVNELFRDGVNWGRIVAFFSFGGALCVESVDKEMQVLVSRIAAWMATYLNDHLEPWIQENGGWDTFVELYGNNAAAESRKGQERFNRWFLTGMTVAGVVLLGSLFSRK
molecule,measurement,setting,value
Asp-Glu-Val-Asp-aldehyde [DEVD-CHO],inhibition of processing of procaspase-6,procaspase-6,inhibited
same,inhibition of processing of procaspase-7,procaspase-7,not
same,inhibition of processing of procaspase-3,"procaspase-3; 35S-labeled procaspase-3, 293 S100 extract, FIG. 8",not
same,effect on processing of procaspase-3,procaspase-3; [3],slightly attenuated
same,inhibition of autoconversion of caspase-3-p20 to p19,procaspase-3; [3],blocked
same,inhibition of procaspase-9 processing at Asp315 (autocatalytic generation of p35 fragment),procaspase-9,not and did not block
same,inhibition of procaspase-9 processing at Asp330 (generation of p37 fragment),procaspase-9,sensitive to inhibition; also recorded: blocked
Bcl-xL: Bcl-xL expressed from a transfected construct as apoptosis inhibitor comparator [reference compound],inhibition of apoptosis,MCF-7 cells,inhibition
"Flag-tagged Apaf-97 (other, not shown: small tags and cut ends, Expressed in co-transfected 293 cells; also called Flag-Apaf-97) MDAKARNCLLQHREALEKDIKTSYIMDHMISDGFLTISEEEKVRNEPTQQQRAAMLIKMILKKDNDSYVSFYNALLHEGYKDLAALLHDGIPVVSSS",binding result,T7-tagged Bcl-xL,no binding
same,binding result,T7-tagged Apaf-530,no binding
purified recombinant procaspase-9-C287A mutant (protein) MDEADRRLLRRCRLRLVEELQVDQLWDALLSRELFRPHMIEDIQRAGSGSRRDQARQLIIDLETRGSQALPLFISCLEDTGQDMLASFLRTNRQAAKLSKPTLENLTPVVLRPEIRKPEVLRPETPRPVDIGSGGFGDVGALESLRGNADLAYILSMEPCGHCLIINNVNFCRESGLRTRTGSNIDCEKLRRRFSSLHFMVEVKGDLTAKKMVLALLELAQQDHGALDCCVVVILSHGCQASHLQFPGAVYGTDGCPVSVEKIVNIFNGTSCPSLGGKPKLFFIQAAGGEQKDHGFEVASTSPEDESPGSNPEPDATPFQEGLRTFDQLDAISSLPTPSDIFVSYSTFPGFVSWRDPKSGSWYVETLDDIFEQWAHSEDLQSLLLRVANAVSVKGIYKQMPGCFNFLRKKLFFKTS,cytochrome c/dATP-induced activation of procaspase-9 and procaspase-3 in the 293 S100 extract,[1],able to attenuate cytochrome c/dATP-induced activation of procaspase-9 and procaspase-3 in the 293 S100 extract in a dose-dependent manner
same,Apaf-530-induced activation of procaspase-9 in the in vitro reconstituted system,[2],A similar result was also obtained with the Apaf-530-induced activation of procaspase-9 in the in vitro reconstituted system (data not shown)
